Data from patent publication US6962930B1, “Compounds, compositions and method suitable for amelioration of withdrawal syndromes and withdrawal-induced brain damage” (Lohocla Research Corporation, priority 1997, dated 2005).

Assays:
[1] = target: benzodiazepine binding site on the GABAA receptor; assay: [3H]flunitrazepam binding, rat cortical membranes; conditions: 5–200 μM DCUKA tested
Protocol: SITES IN CEREBRUM OF F-344 RATS: EFFECTS OF EXERCISE,” Neurobiol. […] Non-specific binding was defined by 10 μM diazepam.

[2] = target: T1, polyamine binding site on the NMDA receptor (Rattus norvegicus, UniProt P35439+Q00960); assay: [3H]ifenprodil binding, rat cortical membranes; conditions: 5–200 μM DCUKA tested
T1 construct: from tissue; host or cells: rat cortical membranes
T1 sequence (Q00960 27-1482, other chains not shown): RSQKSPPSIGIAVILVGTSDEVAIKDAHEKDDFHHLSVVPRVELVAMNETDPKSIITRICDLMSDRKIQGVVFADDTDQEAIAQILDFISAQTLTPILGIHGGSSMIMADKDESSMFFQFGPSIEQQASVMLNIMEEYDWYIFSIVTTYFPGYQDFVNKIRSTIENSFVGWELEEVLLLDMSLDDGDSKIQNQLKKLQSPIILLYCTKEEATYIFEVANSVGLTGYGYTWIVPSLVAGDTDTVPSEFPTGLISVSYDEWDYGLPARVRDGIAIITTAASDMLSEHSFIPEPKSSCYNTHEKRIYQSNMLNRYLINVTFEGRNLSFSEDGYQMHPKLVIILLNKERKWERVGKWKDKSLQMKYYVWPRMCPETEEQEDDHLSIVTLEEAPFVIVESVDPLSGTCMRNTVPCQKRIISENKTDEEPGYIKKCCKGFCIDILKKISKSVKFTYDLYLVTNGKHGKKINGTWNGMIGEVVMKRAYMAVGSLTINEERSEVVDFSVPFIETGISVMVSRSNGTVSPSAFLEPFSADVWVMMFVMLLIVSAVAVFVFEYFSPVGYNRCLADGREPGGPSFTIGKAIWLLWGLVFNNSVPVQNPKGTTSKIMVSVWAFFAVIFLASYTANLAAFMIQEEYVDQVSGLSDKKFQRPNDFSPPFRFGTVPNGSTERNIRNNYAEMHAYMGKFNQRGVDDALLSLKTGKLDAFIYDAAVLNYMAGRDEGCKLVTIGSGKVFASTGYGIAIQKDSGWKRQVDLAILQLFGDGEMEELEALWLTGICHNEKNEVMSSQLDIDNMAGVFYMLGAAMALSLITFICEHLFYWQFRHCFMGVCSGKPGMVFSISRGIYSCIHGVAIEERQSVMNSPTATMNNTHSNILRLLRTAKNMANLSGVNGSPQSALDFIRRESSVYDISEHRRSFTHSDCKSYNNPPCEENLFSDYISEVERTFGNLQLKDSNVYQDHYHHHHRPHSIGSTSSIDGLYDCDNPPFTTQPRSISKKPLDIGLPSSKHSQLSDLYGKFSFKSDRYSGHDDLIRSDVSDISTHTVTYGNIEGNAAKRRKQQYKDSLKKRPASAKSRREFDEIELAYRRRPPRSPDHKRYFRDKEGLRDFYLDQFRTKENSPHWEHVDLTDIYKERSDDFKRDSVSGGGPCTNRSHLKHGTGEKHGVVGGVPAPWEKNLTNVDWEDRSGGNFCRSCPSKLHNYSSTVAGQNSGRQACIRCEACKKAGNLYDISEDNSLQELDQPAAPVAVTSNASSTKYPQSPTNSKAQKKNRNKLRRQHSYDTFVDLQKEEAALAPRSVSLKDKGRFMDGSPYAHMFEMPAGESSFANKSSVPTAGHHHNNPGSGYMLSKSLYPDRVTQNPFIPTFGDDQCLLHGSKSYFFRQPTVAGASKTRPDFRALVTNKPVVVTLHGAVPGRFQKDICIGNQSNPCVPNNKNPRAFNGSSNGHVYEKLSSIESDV

RSM (μl) sodium channels = target: T2, RSM (μl) sodium channels (Rattus norvegicus, UniProt P15390); assay: Sodium currents, whole cell patch clamp in CHO cells; assay type: cell-based; conditions: held at −100 mV, successive depolarizations
T2 construct: expressed in transfected cells
T2 sequence (P15390 whole entry): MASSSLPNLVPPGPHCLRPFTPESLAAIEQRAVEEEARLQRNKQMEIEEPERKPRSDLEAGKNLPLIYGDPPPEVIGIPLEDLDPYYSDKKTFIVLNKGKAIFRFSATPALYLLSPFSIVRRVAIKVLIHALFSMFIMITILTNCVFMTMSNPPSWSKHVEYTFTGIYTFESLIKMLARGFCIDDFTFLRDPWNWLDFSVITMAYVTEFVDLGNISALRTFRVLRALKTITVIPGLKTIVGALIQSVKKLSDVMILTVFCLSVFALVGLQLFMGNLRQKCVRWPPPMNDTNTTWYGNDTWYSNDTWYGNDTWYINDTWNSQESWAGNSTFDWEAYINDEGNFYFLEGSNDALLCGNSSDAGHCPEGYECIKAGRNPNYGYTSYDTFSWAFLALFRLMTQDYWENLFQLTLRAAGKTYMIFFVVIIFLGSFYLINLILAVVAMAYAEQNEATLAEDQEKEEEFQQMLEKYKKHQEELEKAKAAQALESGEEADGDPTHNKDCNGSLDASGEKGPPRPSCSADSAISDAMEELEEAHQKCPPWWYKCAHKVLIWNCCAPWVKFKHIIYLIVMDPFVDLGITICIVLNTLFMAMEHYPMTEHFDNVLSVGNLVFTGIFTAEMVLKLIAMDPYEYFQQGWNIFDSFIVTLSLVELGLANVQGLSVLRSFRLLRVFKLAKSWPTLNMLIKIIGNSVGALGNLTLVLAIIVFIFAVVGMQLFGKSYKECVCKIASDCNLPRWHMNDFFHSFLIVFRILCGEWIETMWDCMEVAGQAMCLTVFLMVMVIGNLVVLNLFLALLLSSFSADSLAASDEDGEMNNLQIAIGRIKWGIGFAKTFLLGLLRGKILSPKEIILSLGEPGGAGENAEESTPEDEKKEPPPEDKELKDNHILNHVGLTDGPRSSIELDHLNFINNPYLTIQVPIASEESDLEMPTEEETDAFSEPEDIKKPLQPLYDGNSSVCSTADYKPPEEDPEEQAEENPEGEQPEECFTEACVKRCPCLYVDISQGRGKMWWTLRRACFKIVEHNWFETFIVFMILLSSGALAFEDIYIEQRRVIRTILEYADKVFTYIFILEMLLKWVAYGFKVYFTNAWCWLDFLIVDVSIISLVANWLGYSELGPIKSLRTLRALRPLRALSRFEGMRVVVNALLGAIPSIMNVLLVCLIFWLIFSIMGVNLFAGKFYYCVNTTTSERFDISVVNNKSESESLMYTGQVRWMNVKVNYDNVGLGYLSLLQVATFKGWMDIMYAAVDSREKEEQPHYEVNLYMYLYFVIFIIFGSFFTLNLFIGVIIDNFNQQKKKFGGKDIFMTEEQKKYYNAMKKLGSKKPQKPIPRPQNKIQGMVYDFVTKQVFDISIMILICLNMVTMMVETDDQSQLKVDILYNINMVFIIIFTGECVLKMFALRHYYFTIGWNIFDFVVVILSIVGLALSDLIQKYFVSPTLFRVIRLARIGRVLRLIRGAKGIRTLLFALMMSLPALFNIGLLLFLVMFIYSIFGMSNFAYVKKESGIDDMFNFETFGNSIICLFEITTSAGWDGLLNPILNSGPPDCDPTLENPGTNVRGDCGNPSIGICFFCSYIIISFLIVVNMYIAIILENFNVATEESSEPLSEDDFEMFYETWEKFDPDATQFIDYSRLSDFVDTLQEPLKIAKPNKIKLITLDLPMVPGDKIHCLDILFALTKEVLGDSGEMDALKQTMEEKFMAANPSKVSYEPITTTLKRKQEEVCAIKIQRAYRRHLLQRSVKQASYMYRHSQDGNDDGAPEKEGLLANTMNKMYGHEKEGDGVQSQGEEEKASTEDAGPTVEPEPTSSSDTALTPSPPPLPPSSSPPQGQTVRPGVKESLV
Protocol: Chinese hamster ovary (CHO) cells stably expressing RSM (μl) sodium channels were studied using the patch clamp whole cell recording technique. CHO cells were grown to confluence in Dulbecco's Modified Eagle's Medium fortified with 15% FBS, 100 U/ml penicillin and 100 μg/ml streptomycin in a humidified incubator at 37° C. and 5% CO2, with medium changed every 2–3 days. Transfections with the plasmid pZemμ1–2 were performed using the calcium phosphate coprecipitation method. After 24 hr of incubation with DNA, standard culturing conditions were resumed. After 3 days, stably transfected cells were selected with 400 μg/ml geneticin. Transfected cells were grown to confluence and then plated on 35 mm culture dishes for 24–96 hr before the experiment.
An 8900 Dagan patch clamp amplifier with a 1 GΩ 8920 Dagan headstage was used in combination with a Nikon Diaphot inverted microscope. Micromanipulators were used to place the electrode onto the cell. Electrodes were pulled to a resistance of […]. […] Peak currents were determined from these traces. DCUKA dissolved in 0.4% DMSO was added directly to the bath following seal formation and the data are expressed as the % of the initial peak current response obtained before drug addition. […]

[3] = target: T3, NR1a/NR2A recombinant receptors (Homo sapiens, UniProt Q05586+Q12879); assay: NMDA-induced currents in oocytes expressing NR1a/NR2A; assay type: cell-based; conditions: 100 μM NMDA, 1 μM glycine, oocytes; read-out: IC50, inhibition of NMDA-induced currents
T3 construct: expressed in transfected cells; host or cells: Xenopus laevis oocytes, nuclear cDNA injection
Protocol: (§1) Oocytes were obtained from Xenopus laevis frogs (Nasco or Xenopus I) kept in aquarium tanks at 19–21° C., on a 12 hr light/dark cycle. Mature females were anesthetized by immersion for approximately 30 min in a 0.12% 3-aminobenzoic acid ethyl ester solution, a small incision was made in the abdominal wall and a piece of ovary was removed and placed in Modified Barth's solution (MBS; in mM) containing 88 NaCl, 1 KCl, 10 HEPES, 0.82 MgSO4, 2.4 NaHCO3, 0.91 CaCl2, 0.33 Ca(NO3)2 (pH 7.5). To facilitate manual dissection of oocytes, a section of ovary was transferred from MBS to a hypertonic buffer containing 108 mM NaCl, 2 mM KCl, 2 mM EDTA, 10 mM HEPES, pH 7.5 and theca and epithelial layers of mature oocytes (stages V and VI) were removed with surgical forceps. The follicular layer was removed by a 10 min immersion in 0.5 mg/ml of collagenase in buffer containing 83 mM NaCl, 2 mM KCl, 1 mM MgCl2 and 5 mM HEPES.
(§2) Human NR1a, NR2A and NR2B cDNAs in pCDNA-1Amp were transformed and amplified in XL-1 Blue cells and purified with the MaxPrep Qiagen kit. Oocytes were injected with cDNA into the nucleus in the following concentrations: NR1a/2A cDNAs 0.75 ng/30 nl 1:1 ratio, NR1a/2B cDNAs 3.0 ng/30 nl: 1:1 ratio. Injections were made with micropipettes (10 μm tip diameter) connected to a Drummond micropipettor attached to a micromanipulator. After injection, oocytes were individually placed in wells of 96-well microtiter plates containing incubation medium (MBS supplemented with 10 mg/l streptomycin, 10,000 U/l penicillin G, 50 mg/l gentamicin, 2 mM sodium pyruvate, 0.5 mM theophylline) that had been sterilized by passage through a […]. Oocytes were incubated at 19° C. for 2 to 4 days after injection.
(§3) Oocytes were placed in a rectangular chamber (approximately […]) and perfused (2 ml/min) with frog Ringer (in mM) containing 115 NaCl, 2.5 KCl, 1.8 CaCl2, 10 HEPES (pH 7.2). […] Control responses were always measured before and after addition of the DCUKA. […] Data are expressed as the % inhibition of the agonist response obtained in the absence of the drug.

[4] = target: T4, NR1a/NR2A recombinant receptors (Homo sapiens, UniProt Q05586); assay: as above; assay type: cell-based; conditions: 100 μM NMDA, 50 μM DCUKA, increasing glycine up to 100 μM
T4 construct: expressed in transfected cells; host or cells: Xenopus laevis oocytes, nuclear cDNA injection
Protocol: as §1, §2, §3

IC50 [1]: > 200 µM
IC50 [2]: > 200 µM
IC50 [3]: 12.8 µM
Compound: O=C(O)c1cc(NC(=O)N(c2ccccc2)c2ccccc2)c2c(Cl)cc(Cl)cc2n1 [DCUKA, (N,N-diphenyl)-4-ureido-5,7-dichloro-2-carboxy-quinoline]
effect on sodium current through VSNaCs (RSM (μl) sodium channels): use- and voltage-dependent inhibitor of VSNaCs
reversal by glycine of inhibition of NMDA-induced currents [4]: could not be overcome by glycine, even at a 100 μM concentration
